In ChEMBL document CHEMBL3627660, “Tetrafluorophenoxymethyl ketone cruzain inhibitors with improved pharmacokinetic properties as therapeutic leads for Chagas' disease” (Bioorg Med Chem Lett, 2015):

Each compound was assayed against Cruzipain (Trypanosoma cruzi, UniProt P25779) (assay: Inhibition of Trypanosoma cruzi recombinant cruzain using Z-FR-AMC as substrate after 5 mins by fluorescence assay). Conditions: not given.
Sequence of Cruzipain (P25779 whole entry): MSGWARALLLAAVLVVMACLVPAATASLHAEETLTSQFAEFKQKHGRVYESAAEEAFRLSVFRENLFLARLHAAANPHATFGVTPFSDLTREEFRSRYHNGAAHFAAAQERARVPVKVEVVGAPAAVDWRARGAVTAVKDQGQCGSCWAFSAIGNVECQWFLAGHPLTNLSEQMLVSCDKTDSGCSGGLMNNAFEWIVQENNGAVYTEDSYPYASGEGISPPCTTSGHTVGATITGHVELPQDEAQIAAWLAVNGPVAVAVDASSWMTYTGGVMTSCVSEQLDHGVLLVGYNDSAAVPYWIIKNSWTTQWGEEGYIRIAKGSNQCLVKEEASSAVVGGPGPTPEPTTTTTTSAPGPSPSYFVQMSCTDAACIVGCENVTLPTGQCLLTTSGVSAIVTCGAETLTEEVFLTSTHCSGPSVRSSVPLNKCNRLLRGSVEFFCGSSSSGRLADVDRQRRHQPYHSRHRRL
For `CC(C)[C@](C)(NCc1ccc2occc2c1)c1cn(C(CCS(C)(=O)=O)C(=O)COc2c(F)c(F)cc(F)c2F)nn1` (stereo not given in full), the IC50 was 880 nM. `CC(C)[C@](C)(NCc1ccc2ncsc2c1)c1cn(C(CCS(C)(=O)=O)C(=O)COc2c(F)c(F)cc(F)c2F)nn1` (stereo not given in full) showed an IC50 of 125 nM. With `CCCCC(C(=O)COc1c(F)c(F)cc(F)c1F)n1cc([C@@](C)(NCc2ccncc2)C(C)C)nn1` (stereo not given in full) the IC50 was 1100 nM. `CCCCC(C(=O)COc1c(F)c(F)cc(F)c1F)n1cc([C@@](C)(NC(=O)c2ccc3ncccc3c2)C(C)C)nn1` (stereo not given in full) gave an IC50 of 1350 nM. `COCCC(C(=O)COc1c(F)c(F)cc(F)c1F)n1cc([C@@](C)(NCc2ccc3ncsc3c2)C2CCCC2)nn1` (stereo not given in full) showed an IC50 of 124 nM. Work on `COCCC(C(=O)COc1c(F)c(F)cc(F)c1F)n1cc([C@@](C)(NCc2ccc3ncsc3c2)C(C)C)nn1` (stereo not given in full) yielded an IC50 of 63 nM. `C[C@@](NCc1ccc2occc2c1)(c1cn(C(CCS(C)(=O)=O)C(=O)COc2c(F)c(F)cc(F)c2F)nn1)C1CCCC1` (stereo not given in full) showed an IC50 of 790 nM. Work on `CCCCC(C(=O)COc1c(F)c(F)cc(F)c1F)n1cc([C@@](C)(NC(=O)c2ccncc2)C(C)C)nn1` (stereo not given in full) yielded an IC50 of 23000 nM. With `CCCCC(C(=O)COc1c(F)c(F)cc(F)c1F)n1cc([C@@](C)(NCc2ccc3ncsc3c2)C2CCCC2)nn1` (stereo not given in full) the IC50 was 5 nM. With `CC(C)[C@](C)(NCc1ccn2nccc2n1)c1cn(C(CCS(C)(=O)=O)C(=O)COc2c(F)c(F)cc(F)c2F)nn1` (stereo not given in full) the IC50 was 467 nM.

Each compound was assayed on Trypanosoma cruzi (assay: Antitrypanosomal activity against Trypanosoma cruzi infected in C2C12 cells after 72 hrs by DAPI staining). Conditions: C2C12, 72 h.
Format: functional, organism-based
`CC(C)[C@](C)(NCc1ccc2occc2c1)c1cn(C(CCS(C)(=O)=O)C(=O)COc2c(F)c(F)cc(F)c2F)nn1` (stereo not given in full) was tested, and the IC50 was 3 nM. `CC(C)[C@](C)(NCc1ccc2ncsc2c1)c1cn(C(CCS(C)(=O)=O)C(=O)COc2c(F)c(F)cc(F)c2F)nn1` (stereo not given in full) gave an IC50 of 12 nM. `CCCCC(C(=O)COc1c(F)c(F)cc(F)c1F)n1cc([C@@](C)(NCc2ccncc2)C(C)C)nn1` (stereo not given in full) was tested, and the IC50 was 143 nM. Work on `CCCCC(C(=O)COc1c(F)c(F)cc(F)c1F)n1cc([C@@](C)(NC(=O)c2ccc3ncccc3c2)C(C)C)nn1` (stereo not given in full) yielded an IC50 of 700 nM. With `COCCC(C(=O)COc1c(F)c(F)cc(F)c1F)n1cc([C@@](C)(NCc2ccc3ncsc3c2)C2CCCC2)nn1` (stereo not given in full) the IC50 was 7 nM. In the case of `COCCC(C(=O)COc1c(F)c(F)cc(F)c1F)n1cc([C@@](C)(NCc2ccc3ncsc3c2)C(C)C)nn1` (stereo not given in full), the IC50 is reported as 44 nM. With `C[C@@](NCc1ccc2occc2c1)(c1cn(C(CCS(C)(=O)=O)C(=O)COc2c(F)c(F)cc(F)c2F)nn1)C1CCCC1` (stereo not given in full) the IC50 was 5 nM. For `CCCCC(C(=O)COc1c(F)c(F)cc(F)c1F)n1cc([C@@](C)(NC(=O)c2ccncc2)C(C)C)nn1` (stereo not given in full), the IC50 was 1600 nM. `CCCCC(C(=O)COc1c(F)c(F)cc(F)c1F)n1cc([C@@](C)(NCc2ccc3ncsc3c2)C2CCCC2)nn1` (stereo not given in full) gave an IC50 of 3 nM. `CC(C)[C@](C)(NCc1ccn2nccc2n1)c1cn(C(CCS(C)(=O)=O)C(=O)COc2c(F)c(F)cc(F)c2F)nn1` (stereo not given in full) gave an IC50 of 2340 nM.
